Laboratory results reported in a melting point compilation (Tetko et al.; mined from patent text by program, amines drawn as free bases though some values may be those of a salt).

Q: With `CCCOc1ccc2c(c1)[C@H](c1ccc(OC)cc1-c1ccccc1)[C@@H](C(=O)O)[C@@H]2c1ccc2c(c1)OCO2` (racemic) as the compound, how does the melting point read?
A: 199 to 200 °C

Q: For `COC(=O)c1ccccc1NS(=O)(=O)c1ccc(C(=O)NCCc2ccccc2)cc1`, which melting point is on record?
A: 167 to 168 °C

Q: For `CCS(=O)(=O)c1cnc2c(c1)nc(CC(C)(C)C)n2CC1CCOCC1`, which melting point is on record?
A: 191 °C

Q: Which melting point does the source give for `CS(=O)(=O)c1ccc(-c2oc3ccccc3c(=O)c2-c2cccc(Cl)c2)cc1` here?
A: 195 to 196 °C

Q: With `Oc1ccc(CNC2=NCCc3ccccc32)cc1` as the compound, how does the melting point read?
A: 177 to 179 °C

Q: Which melting point does the source give for `O=C(c1ccccc1)c1ccc(OCCBr)cc1O` here?
A: 87 to 89.5 °C

Q: For `CC(O)c1cnc2cc(Oc3cc(-c4ccc(C(F)(F)F)cc4)ncn3)ccc2c1` (stereo not drawn), which melting point is on record?
A: 156 to 157 °C

Q: Which melting point does the source give for `COc1cccc(OC)c1-c1cc2c(ccn2C)c2c1C(=O)NC2=O` here?
A: 285 to 288 °C

Q: For `CN(C1CCCc2ccc([N+](=O)[O-])cc21)S(C)(=O)=O` (stereo not drawn), which melting point is on record?
A: 138 to 140 °C

Q: For `Cc1[nH]c(C(=O)NC2CCN(c3cc(C(=O)O)nc4ccccc34)CC2)c(Cl)c1Cl`, which melting point is on record?
A: 254 to 256 °C

Q: For `COc1ccc(S(=O)(=O)N(Cc2ccccc2)C2(C(=O)NO)CCN(Cc3ccccc3)CC2)cc1`, which melting point is on record?
A: 136 to 142 °C

Q: With `CC(=O)Nc1nc2c(s1)-c1nc(-c3ccccc3)ncc1C2` as the compound, how does the melting point read?
A: > 300 °C

Q: For `CC(=O)NCc1ccc(CN2CCN(c3ccc(F)cc3[N+](=O)[O-])CC2)cc1`, which melting point is on record?
A: 94.5 to 96 °C

Q: For `NNC1NS(=O)(=O)c2ccccc21` (stereo not drawn), which melting point is on record?
A: 249 °C

Q: Which melting point does the source give for `COc1ccc(C(O)CN2c3nc(-c4ccncc4)cc(=O)n3CCC2c2ccccc2)cc1` (stereo not drawn) here?
A: 150 to 152 °C

Q: Which melting point does the source give for `COc1cc(C=O)ccc1OCCCCl` here?
A: 53 to 55 °C

Q: For `COCc1csc(C(=O)C2C(=O)N(C(N)=O)c3ccc(Cl)cc32)c1` (stereo not drawn), which melting point is on record?
A: 193 to 195 °C

Q: Which melting point does the source give for `COC1C(NC(=O)C(F)(F)F)CC(OC2CC(O)(CO)Cc3c(O)c4c(c(O)c32)C(=O)c2ccccc2C4=O)OC1C` (stereo not drawn) here?
A: 262 to 263 °C

Q: With `COc1cc(Nc2c(C#N)cnc3cc(-c4csc(CN5CCOCC5)c4)c(OC)cc23)c(Cl)cc1Cl` as the compound, how does the melting point read?
A: 148 to 150 °C

Q: Which melting point does the source give for `Nc1cccc(S(F)(F)(F)(F)F)c1` here?
A: 32 to 35 °C

Q: With `CC#Cc1ncn2c1CN(C)C(=O)c1ccccc1-2` as the compound, how does the melting point read?
A: 206 to 207 °C

Q: For `O=C(CBr)c1cc(OCc2ccccc2)no1`, which melting point is on record?
A: 80 to 81 °C

Q: Which melting point does the source give for `CS(=O)(=O)c1ccc(-c2ccccc2N)cc1` here?
A: 164 to 165 °C

Q: With `COC(=O)c1ccc2c(c1C)SCCC2(C)C` as the compound, how does the melting point read?
A: 63 °C

Q: With `O=C1N(c2ccc(Cl)cc2Cl)Cc2cnc(Nc3ccccc3)nc2N1c1ccc(CO)cc1` as the compound, how does the melting point read?
A: 121 to 125 °C

Q: For `C=C(NC(=O)OC(C)(C)C)C(=O)OCc1ccc([N+](=O)[O-])cc1`, which melting point is on record?
A: 94 to 95 °C

Q: For `Cc1cc(-c2cnn3c(C(F)(F)F)cc(-c4cccc(C(F)(F)F)c4)nc23)cc(C)n1`, which melting point is on record?
A: 236 °C

Q: Which melting point does the source give for `NC(=O)CC[C@H](NC(=O)OCc1ccccc1)C(=O)N[C@@H](Cc1ccc(O)cc1)C(=O)OCc1ccccc1` here?
A: 165 to 170 °C

Q: With `COC(=O)CCc1cnoc1-c1ccc2c(c1)OCO2` as the compound, how does the melting point read?
A: 84 to 85 °C

Q: Which melting point does the source give for `O=[N+]([O-])c1cn2c(n1)OC[C@@H](OCc1ccc(Cl)nn1)C2` here?
A: 180 to 184 °C

Q: With `N#Cc1cc(C(=O)NNC(=O)c2occ(-c3ccc(Cl)cc3)c2-c2ccc(Cl)cc2)ccc1O` as the compound, how does the melting point read?
A: 190 to 191 °C

Q: Which melting point does the source give for `CC(=O)c1ccccc1NC(C)c1c(Cl)cccc1Cl` (stereo not drawn) here?
A: 123 °C

Q: Which melting point does the source give for `CCC(=O)N1CCC(NC(=O)Nc2ccccc2)CC1` here?
A: 169 to 171 °C

Q: For `Cn1c([N+](=O)[O-])cnc1C(Cl)Cl`, which melting point is on record?
A: 52 °C

Q: Which melting point does the source give for `COC(=O)c1cccnc1CN1C(=O)C(NC(=O)Nc2cccc(C)c2)N=C(c2ccccc2F)c2ccccc21` (racemic) here?
A: 171 to 175 °C

Q: With `c1csc(-c2nc3ccc(N4CCNCC4)nn3c2-c2ccncc2)c1` as the compound, how does the melting point read?
A: 217 to 220 °C

Q: Which melting point does the source give for `CC(=O)OC1CCC(NC(=O)Nc2ccccc2CCc2cc(C(C)(C)C)c(O)c(C(C)(C)C)c2)CC1` (stereo not drawn) here?
A: 92 to 94 °C

Q: Which melting point does the source give for `CCOC(=O)c1cc(Cl)n2ncnc2n1` here?
A: 92.5 to 94 °C
